Columns and labels:
[1] = system: insulin-induced Akt phosphorylation; test: Western blot of insulin-stimulated AKT phosphorylation in WAT, liver and skeletal muscle lysates from mice; format: in vivo, mouse; conditions: insulin 1 U/kg; for inhibitory effects of tryptamine on insulin-stimulated AKT phosphorylation in tissues: tryptamine 10 mg/kg plus inhibitor (U0126 20 mg/kg or EPPTB 10 mg/kg), WAT and liver lysates; for insulin-induced Akt phosphorylation in major metabolic tissues: WAT, liver, skeletal muscle, tryptamine 10 mg/kg or phenethylamine 5 mg/kg i.p.
Experimental: (§1) Frozen tissues and harvested cells were lysed in RIPA buffer with a protease inhibitor cocktail. For western blotting, the cell lysates and tissue lysates were centrifuged at 15,000 rpm for 15 min at 4° C. The supernatant was mixed with 5× loading buffer and heated at 98° C. on a dry bath for 10 min. The target proteins were then detected in the samples as per manufacturer instructions. The blots were incubated with HRP-linked anti-rabbit IgG or anti-mouse IgG and reacted with enhanced chemiluminescence. The quantification of protein bands from western blots was analyzed using Image J.

ERK1/2 phosphorylation [2] = test: Western blot of ERK activation in WAT, liver and skeletal muscle lysates from mice; format: in vivo, mouse; conditions: for tryptamine-induced ERK phosphorylation in tissues: tryptamine 10 mg/kg plus inhibitor (U0126 20 mg/kg or EPPTB 10 mg/kg), WAT and liver lysates
Experimental: as §1

[3] = Oral glucose tolerance test (OGTT) in mice; format: in vivo, mouse; conditions: for glucose tolerance in control mice (OGTT): control mice without tryptamine, inhibitor alone; for tryptamine-induced glucose intolerance (OGTT): tryptamine (10 mg/kg)-treated mice plus inhibitor i.p. (U0126 20 mg/kg, PD98059 10 mg/kg, EPPTB 10 mg/kg); for glucose tolerance (OGTT): normal mice, substance given alone (tryptamine 0.4, 2, 10 mg/kg; phenethylamine 1, 2, 5 mg/kg i.p.)
Experimental: (§2) For the oral glucose tolerance test (OGTT), mice were fasted for 12 hours (overnight) and administered with tryptamine, ERK inhibitors, TAAR1 antagonist or IAA at indicated dosages. After 30 min, mice were given glucose at a dosage of 2 g/kg. Blood samples were collected from the tail vein for glucose measurement using Accu-Chek glucose meters at 0, 15, 30, 60, 90 and 120 min after the glucose challenge. For the insulin tolerance test (ITT), mice were fasted for 4 hours and administered with tryptamine, ERK inhibitors or a TAAR1 antagonist at indicated dosages. After 30 min, insulin (1 U/kg) was injected intraperitoneally into the mice. Blood glucose levels were measured as per OGTT. For the measurement of serum insulin and TG, serum was collected 120 min after the mice were treated with tryptamine.

[4] = Insulin tolerance test (ITT) in mice; format: in vivo, mouse; conditions: for insulin sensitivity in control mice (ITT): control mice without tryptamine, inhibitor alone; for tryptamine-induced insulin resistance (ITT): tryptamine (10 mg/kg)-treated mice plus inhibitor i.p. (U0126 20 mg/kg, PD98059 10 mg/kg, EPPTB 10 mg/kg); for insulin sensitivity (ITT): normal mice, substance given alone (tryptamine 0.4, 2, 10 mg/kg; phenethylamine 1, 2, 5 mg/kg i.p.)
Experimental: as §2

[5] = system: insulin-induced AKT phosphorylation; test: Western blot of insulin signaling (AKT phosphorylation) in 3T3-L1 cells; format: cell-based; conditions: insulin 20 nM; for inhibitory effects of tryptamine and phenethylamine on insulin-stimulated AKT phosphorylation / insulin-induced AKT phosphorylation: 3T3-L1 cells; for inhibitory effects of tryptamine and phenethylamine on insulin-stimulated AKT phosphorylation: tryptamine or phenethylamine 25 μM, inhibitor 20 μM; for insulin signaling: 3T3-L1 adipocytes, 25 μM; for insulin-induced AKT phosphorylation: precursors and metabolites at 100 μM
Experimental: (§3) For the glucose uptake assay, 3T3-L1 cells were serum- and glucose-starved for 3 hours and then incubated with glucose, FBS, insulin and tryptamine for 30 min as indicated. To assess the effect of tryptamine on insulin signaling, 3T3-L1 cells were pre-treated with or without tryptamine, ERK inhibitor or TAAR1 antagonist EPPTB, and then treated with insulin at the indicated concentration. The effect of IAA on insulin signaling was evaluated by treating 3T3-L1 cells with or without IAA followed by insulin for the indicated times. Tryptamine, U0126 and EPPTB were dissolved in DMSO at 100 mM as a stock solution. For cAMP measurements, 3T3-L1 cells were pre-treated with or without EPPTB for 60 min and then treated with tryptamine for the indicated times.
as §1

ERK1/2 phosphorylation [6] = test: Western blot of ERK activation in 3T3-L1 cells; format: cell-based; conditions: for ERK phosphorylation induced by tryptamine and phenethylamine: tryptamine or phenethylamine 25 μM, pre-treatment with inhibitor 20 μM; for ERK1/2 phosphorylation: 25 μM
Experimental: as §3, with “3T3-L1 adipocytes (ATCC CL-173) were cultured and maintained in DMEM with 10% (v/v) FBS. For the” for “For the”
as §1

Serum TG level in mice = format: in vivo, mouse; conditions: normal mice, i.p.
Experimental: as §2

[7] = mouse, in vivo, 15 min
Experimental: (§4) Tryptamine at a dosage of 5 mg/kg (dissolved in 0.5% CMC-Na) was orally administered to mice. After 15 min, mice were euthanized by isoflurane and sacrificed by cervical dislocation. Serum, liver, skeletal muscle and WAT were collected and stored at −80° C. until analysis. About 80 mg of biological tissues were extracted with a 20× volume of 70% methanol (m/v) and then homogenized with steel beads. The samples were then centrifuged at 14,000 rpm at 4° C. for 15 min. About 200 μL of the supernatant was transferred to new tubes for LC-MS analysis.

[8] = system: insulin signaling-related proteins; test: Phospho-proteomics study of mouse tissue; format: in vivo; conditions: mice, insulin-sensitive tissues (WAT), tryptamine treatment
Experimental: Mice were fasted for 4 hours and orally administered with tryptamine or vehicle. The WAT tissues were collected for the phosphoproteomics study. Mice tissue samples used for the TMT-labeled phosphoproteomics study were prepared as previously reported. An Easy nLC system (Thermo Fisher Scientific) with an Acclaim PepMap RSLC column (50 μm×15 cm) was used to separate the TMT-labelled peptides. The mobile phase used in LC-MS-Orbitrap was A: water with 0.1% formic acid and B: 80% acetonitrile, 20% water with 0.1% formic acid. The elution gradient was set as 0-5 min in 0-6% buffer B, 5-45 min in 6-28% buffer B, 45-50 min in 28%-38% buffer B, 50-55 min 38-100% buffer B and maintained during […] in 100% buffer B. The obtained MS/MS spectra were processed by Proteome Discoverer (Thermo Fisher Scientific) and searched using MASCOT engine 2.6. All protein sequences were aligned to the Mus musculus database downloaded from UniProt (http://www.uniprot.org). The proteins with a fold change>1.2 or <0.8 and a p-value<0.05 were considered as differentially expressed proteins.

[9] = Serum insulin level in monkeys; format: in vivo, Macaca fascicularis; conditions: normal monkeys, single dose 10 mg/kg via oral gavage
Experimental: The first crab-eating macaques (Macaca fascicularis) metabolomics study is performed with ethics approval (No. YMB1704) by Yunnan Yinmore Biotechnology company (Kunming, China). The diagnosis of diabetes for monkeys was based on published criteria. Specifically, age-matched (10-23 years old) monkeys were categorized as normal (Define as FBG<75 mg/dL and Hb1Ac<3.5%), pre-diabetes (FBG 80-130 mg/dL and Hb1Ac 4.0%-6.0%) and diabetes (FBG>130 mg/dL and Hb1Ac>6.0%) (n=26 for each group). Biological samples including serum and feces were collected and stored at −80° C. until analysis. The second crab-eating macaques (n=5) intervention study is performed with ethics approval (No. HZ2021047) by Huazhen Biosciences company (Guangzhou, China). Biochemical parameters including OGTT and serum insulin level were measured before and after tryptamine treatment. No crab-eating macaques were treated with anti-diabetic medication during these studies.
To understand the role of tryptamine and phenethylamine in the pathophysiology of insulin resistance, tryptamine and phenethylamine were administered to normal mice within the pathophysiological range detected in the fecal samples of T2D subjects. […]

[10] = Tissue distribution of tryptamine; conditions: mice, oral gavage of tryptamine 5 mg/kg, within 15 min
Experimental: as §4

3T3-L1 adipocytes = test: Glucose uptake assay in 3T3-L1 cells; format: cell-based; conditions: 5, 10 and 25 μM
Experimental: as §3, with “3T3-L1 adipocytes (ATCC CL-173) were cultured and maintained in DMEM with 10% (v/v) FBS. For the” for “For the”

[11] = Intravenous glucose tolerance test (IVGTT) in monkeys; format: in vivo, Macaca fascicularis; conditions: normal monkeys, single dose 10 mg/kg via oral gavage
[12] = antibiotics-treated mice colonized with R. gnavus ATCC 29149, EPPTB 10 mg/kg i.p.

## N#CC(=C(/N)Sc1ccccc1N)/C(C#N)=C(\N)Sc1ccccc1N [U0126]
[1]
  inhibitory effects of tryptamine on insulin-stimulated AKT phosphorylation in tissues: abolished the inhibitory effects
ERK1/2 phosphorylation [2]
  tryptamine-induced ERK phosphorylation in tissues: significantly downregulated
[3]
  glucose tolerance in control mice (OGTT): negligible effects
  tryptamine-induced glucose intolerance (OGTT): significantly improved
[4]
  insulin sensitivity in control mice (ITT): negligible effects
  tryptamine-induced insulin resistance (ITT): significantly improved
[5]
  inhibitory effects of tryptamine and phenethylamine on insulin-stimulated AKT phosphorylation: significantly suppressed the inhibitory effects
ERK1/2 phosphorylation [6]
  ERK phosphorylation induced by tryptamine and phenethylamine: blocked

## NCCc1ccccc1 [phenethylamine]
[1]
  insulin-induced Akt phosphorylation in major metabolic tissues: significantly suppressed
Serum TG level in mice
  serum TG levels: significant elevation
[3]
  glucose tolerance (OGTT): remarkably inhibitory effects
[4]
  insulin sensitivity (ITT): remarkably inhibitory effects
[5]
  insulin signaling: inhibited insulin signaling in a time-dependent manner
ERK1/2 phosphorylation [6]
  ERK1/2 phosphorylation: induced ERK1/2 phosphorylation in a time-dependent manner

## O=C(O)Cc1ccccc1 [phenylacetic acid]
[5]
  insulin-induced AKT phosphorylation: did not alter

## O=C(O)Cc1c[nH]c2ccccc12 [indole-3-acetic acid]
[3]
  glucose tolerance (OGTT): did not impair
[4]
  insulin sensitivity (ITT): did not impair
[5]
  insulin-induced AKT phosphorylation: did not alter
[7]
  IAA concentration relative to that of tryptamine in serum: 40-100 fold

## N[C@@H](Cc1ccccc1)C(=O)O [phenylalanine]
[5]
  insulin-induced AKT phosphorylation: did not alter

## N[C@@H](Cc1c[nH]c2ccccc12)C(=O)O [tryptophan]
[5]
  insulin-induced AKT phosphorylation: did not alter

## CCOc1cccc(NC(=O)c2ccc(N3CCCC3)c(C(F)(F)F)c2)c1 [EPPTB, N-(3-ethoxy-phenyl)-4-pyrrolidin-1-yl-3-trifluoromethyl-benzamide]
[1]
  inhibitory effects of tryptamine on insulin-stimulated AKT phosphorylation in tissues: abolished the inhibitory effects
ERK1/2 phosphorylation [2]
  tryptamine-induced ERK phosphorylation in tissues: downregulated
[3]; [12]
  R. gnavus-induced impaired glucose tolerance (OGTT): partially abrogated
[3]
  glucose tolerance in control mice (OGTT): did not affect
  tryptamine-induced glucose intolerance (OGTT): significantly reduced
[4]; [12]
  R. gnavus-induced lower insulin sensitivity (ITT): partially abrogated
[4]
  insulin sensitivity in control mice (ITT): did not affect
  tryptamine-induced insulin resistance (ITT): significantly reduced
[5]
  inhibitory effects of tryptamine and phenethylamine on insulin-stimulated AKT phosphorylation: reversed the inhibitory effects
ERK1/2 phosphorylation [6]
  ERK phosphorylation induced by tryptamine and phenethylamine: significantly downregulated

## NCCc1c[nH]c2ccccc12 [tryptamine]
[1]
  insulin-induced Akt phosphorylation in major metabolic tissues: significantly suppressed
[8]
  insulin signaling-related phospho-proteins (HSL, ERK, SH3D5): upregulated
Serum TG level in mice
  serum TG levels: significant elevation
ERK1/2 phosphorylation [2]; tryptamine 10 mg/kg i.p., WAT, liver, skeletal muscle
  ERK1/2 phosphorylation in insulin-sensitive tissues: upregulated
[3]
  glucose tolerance (OGTT): remarkably inhibitory effects
[9]
  serum insulin levels: significant elevation
[4]
  insulin sensitivity (ITT): remarkably inhibitory effects
[5]
  insulin signaling: inhibited insulin signaling in a time-dependent manner
[10]
  metabolite indole-3-acetic acid (IAA) levels in serum and insulin-sensitive tissues: significantly increased
[10]; serum, WAT, liver, skeletal muscle
  tryptamine levels in serum and insulin-sensitive tissues: significantly increased
3T3-L1 adipocytes
  basal glucose uptake: inhibited basal glucose uptake in a dose-dependent manner
ERK1/2 phosphorylation [6]
  ERK1/2 phosphorylation: induced ERK1/2 phosphorylation in a time-dependent manner
[11]
  blood glucose levels in the glucose challenge (IVGTT): higher blood glucose levels

## COc1cccc(-c2cc(=O)c3ccccc3o2)c1N [PD98059]
[3]
  glucose tolerance in control mice (OGTT): negligible effects
  tryptamine-induced glucose intolerance (OGTT): significantly improved
[4]
  insulin sensitivity in control mice (ITT): negligible effects
  tryptamine-induced insulin resistance (ITT): significantly improved

From US20240295566A1, “METHOD FOR DIAGNOSING AND TREATING METABOLIC DISORDERS” (Centre for Chinese Herbal Medicine Drug Development Limited, priority 2023, published 2024)
